Source: US10617709B2, “miRNAs as novel therapeutic adjuvants and biomarkers for the prognosis and treatment of drug resistant breast cancers” (THE BOARD OF REGENTS OF THE UNIVERSITY OF TEXAS SYSTEM, priority 2012, dated 2020)

Test system: Tumor explants from TNBC patients
Test: Ex-vivo tumor explant model, Ki67 IHC
Design: species or system human
Conditions: for Ki67 levels: paclitaxel 1 μM, 48 hours
Description: To further establish the efficacy of these miRNAs in treating TNBC, we used ex-vivo tumor explant model. Freshly excised breast cancer tissues were dissected into 1 mm^3 specimens, placed on hydrated gelatin sponge in explant media supplemented with hydrocortisone and insulin at 37° C. in the CO2 incubator. Tumor explants from TNBC patients were treated with paclitaxel and tissues were gently removed, fixed in 10% neutral buffered formalin and processed for paraffin blocks. IHC analyses were conducted to determine the Ki67 levels. IHC of surgical specimens and explants reveal that explants retain the tissue architecture and proliferation properties of the original surgical specimen. […] FIG. 15.
Tumor explants growing on the gelatin sponge were treated with either sensitizer miRNA (75 nM) alone or paclitaxel (1 μM) alone or with miRNA (75 nM) and paclitaxel (1 μM) together. […] FIG. 16.

## CC(=O)O[C@H]1C(=O)[C@@]2(C)[C@H]([C@H](OC(=O)c3ccccc3)[C@]3(O)C[C@H](OC(=O)[C@H](O)[C@@H](NC(=O)c4ccccc4)c4ccccc4)C(C)=C1C3(C)C)[C@]1(OC(C)=O)CO[C@@H]1C[C@@H]2O [paclitaxel]
Advanced stage TNBC explant
  response to paclitaxel (Ki67 staining): not responsive
non-relapsed TNBC explant
  Ki67 staining: inhibition of Ki67 staining
Relapsed / advanced stage TNBC explants, sensitizer miRNA 75 nM
  Ki67 levels: did not result in significant change
Responsive TNBC (early stage cancer) explants
  Ki67 levels: significant inhibition of Ki67 levels
